Measurements from patent US6037158A, “Alcohol dehydrogenase and its use for the enzymatic production of chiral hydroxy compounds” (priority 1996, dated 2000).
Like-named read-outs stand apart in the source and are kept apart here.

How the values were obtained:
[1] = target: T1, alcohol dehydrogenase from L. brevis (Levilactobacillus brevis, UniProt Q84EX5); experiment: biochemical; assay type: biochemical; settings: for Activity: 0.19 mM NADPH, pH 7.0, purified enzyme diluted 1:10
T1 sequence (Q84EX5 2-252): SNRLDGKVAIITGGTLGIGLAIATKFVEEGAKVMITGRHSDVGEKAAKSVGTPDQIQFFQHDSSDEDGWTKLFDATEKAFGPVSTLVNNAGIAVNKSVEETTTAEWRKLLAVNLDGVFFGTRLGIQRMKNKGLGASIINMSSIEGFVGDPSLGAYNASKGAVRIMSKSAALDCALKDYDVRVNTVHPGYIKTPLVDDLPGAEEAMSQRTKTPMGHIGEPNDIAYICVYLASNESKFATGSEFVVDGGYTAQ
Experimental: A series of other ketones and keto esters were used instead of acetophenone and it was tested whether these can be reduced by enzyme catalysis.
The following test mixture was used for this:
970 μl triethanolamine buffer (50 mM; pH 7.0, containing 10 mM keto compound)
20 μl NADPH (0.19 mM in the test)
Some of the ketones were also tested at a concentration of 1 mM in order to verify a possible substrate inhibition at 10 mM.

[2] = Temperature optimum of enzyme activity; assay type: biochemical
[3] = Temperature stability of the alcohol dehydrogenase (30 min at temperature, measured at 30° C.); assay type: physicochemical
Experimental: The temperature stability in the range of 25 to 70° C. was determined in an analogous manner to that described under A. The homogeneous enzyme solution was subjected for 30 min to the recited temperatures and subsequently measured directly at 30° C. with the above test mixture. […] In contrast the ADH from L. kefir is only stable up to 40° C. with a maximum at 37° C., afterwards the activity decreases rapidly. The maximum for this enzyme is at 37° C.

[4] = relative to acetophenone = 100, 10 mM keto compound, read-out: Relative act.
[5] = relative to acetophenone = 100, 10 mM keto compound

Molecule | Activity ([1]; 10 mM keto compound) [U/ml] | activity at 10000 µM ([1]; read-out: Relative act.) [%] | activity at 10000 µM [1, 4] [%] | further results
C(CCOCC1CO1)COCC1CO1 (stereo not drawn) [1,4-butanediol-diglyceridyl ether] | 0.77 | 24 |  | 
CC(=O)CC(C)=O [2,4-pentanedione] | 4.22 | 130 |  | 
CC(=O)c1ccccc1Cl [2-Cl-acetophenone] | 0.33 | 10 |  | 
CC1CCCCC1=O (stereo not drawn) [2-methylcyclohexanone] | 6.25 |  | 192 | 
CCOC(=O)C(=O)CCc1ccccc1 [2-oxo-4-phenylbutyric acid ethyl ester] | 4.60 |  |  | Relative act. [1, 5]: 141%
CC(=O)c1cccc(Cl)c1 [3-Cl-acetophenone] | 4.80 | 147 |  | 
CCOC(=O)CC(=O)CC [3-oxo-n-valeric acid ethyl ester] | 2.29 |  | 70 | 
CCC(=O)CC(=O)OC [3-oxo-n-valeric acid methyl ester] | 2.26 |  | 69 | 
CCOC(=O)CC(=O)CCl [4-Cl-acetic acid ethyl ester] | 3.04 | 93 |  | 
CC(=O)c1ccc(Cl)cc1 [4-Cl-acetophenone] | 6.63 | 203 |  | 
CCOC(=O)CCCC(C)=O [4-acetylbutyric acid ethyl ester] | 2.84 |  | 87 | 
CC(=O)CCCC(=O)O [4-acetylbutyric acid] | 0.32 |  | 10 | 
CCc1ccc(C(C)=O)cc1 [4-ethylacetophenone] | 2.13 | 65 |  | 
CCCCOC(C)=O [acetic acid butyl ester] | 2.07 | 64 |  | 
CC(=O)CC(=O)OCc1ccccc1 [aceto acetic acid benzyl ester] | 4.11 |  | 126 | 
CCOC(=O)CC(C)=O [aceto acetic acid ethyl ester] | 3.54 | 109 |  | 
COC(=O)CC(C)=O [aceto acetic acid methyl ester] | 3.81 | 117 |  | 
O=Cc1ccccc1 [benzaldehyde] | 0.30 | 9 |  | 

Molecule | Activity ([1]; 10 mM keto compound) [U/ml] | activity at 10000 µM ([1]; read-out: Relative act.) [%] | activity at 10000 µM [1, 4] [%] | further results
CCOC(=O)CC(=O)c1ccccc1 [benzoyl acetic acid ethyl ester] | 1.14 |  | 35 | 
CC(=O)CCc1ccccc1 [benzylacetone] | 3.24 |  |  | activity at 10000 µM ([1]; read-out: Relative act., relative to acetophenone = 100, 10 mM keto compound): 99%
CC(=O)Cc1ccccc1 [benzylmethyl ketone] | 0.36 | 11 |  | 
CCOC(=O)CC1CCCCC1=O (stereo not drawn) [cyclohexanone-2-acetic acid ethyl ester] | 0.14 |  | 4 | 
CCOC(=O)C1CCCCC1=O (stereo not drawn) [cyclohexanone-2-carboxylic acid ethyl ester] | 0.41 |  | 13 | 
CCOC(=O)C(C)=O [ethyl pyruvate] | 8.10 |  | 248 | 
CCOC(=O)C(C)C(C)=O (stereo not drawn) [ethyl-2-methylacetoacetate] | 0.84 |  | 26 | 
CCOC(=O)C(=O)CCc1ccccc1 [ethyl-2-oxo-4-phenyl butyrate] | 0.40 |  |  | Relative act. [1, 5]: 12%
CCCC(=O)CC(=O)OCC [ethylbutyryl acetate] | 2.21 |  | 68 | 
CC(=O)CO [hydroxyacetone] | 0.74 |  | 23 | 
CCOC(=O)CC(=O)C(C)C [isobutyrylacetic acid ethyl ester] | 1.93 |  | 59 | 
CCOC(=O)CCC(C)=O [laevulinic acid ethyl ester] | 2.99 |  | 92 | 
COC(=O)C(C)=O [methyl pyruvate] | 3.22 |  | 98 | 
CC(=O)c1cccc2ccccc12 [methyl-1-naphthyl ketone] | 1.21 |  | 37 | 
CCC(=O)c1ccccc1 [propiophenone] | 0.55 | 17 |  | 
CCOC(=O)C(F)(F)F [trifluoroacetic acid ethyl ester] | 0.50 | 15 |  | 
alcohol dehydrogenase from Lactobacillus kefir: NADP-dependent R-alcohol dehydrogenase from Lactobacillus kefir (DE 40 14 573 C1), comparison enzyme [reference compound] |  |  |  | optimal test temperature (activity maximum) [2]: 37 °C; act. (temperature optimum) ([2]; test temperature 20° C.): 28.0 U/ml; act. (temperature optimum) ([2]; test temperature 25° C.): 28.2 U/ml; act. (temperature optimum) ([2]; test temperature 30° C.): 35.2 U/ml; act. (temperature optimum) ([2]; test temperature 35° C.): 36.2 U/ml; act. (temperature optimum) ([2]; test temperature 40° C.): 34.4 U/ml; act. (temperature optimum) ([2]; test temperature 45° C.): 35.4 U/ml; act. (temperature optimum) ([2]; test temperature 50° C.): 26.0 U/ml; act. (temperature optimum) ([2]; test temperature 55° C.): 3.0 U/ml; act. (temperature optimum) ([2]; test temperature 60° C.): 0 U/ml; temperature at which the enzyme is inactivated by 50% (thermal deactivation) [3]: 45 °C; temperature of maximum stability ([3]; 30 min): 37 °C; temperature range in which the enzyme is stable ([3]; 30 min): up to 40 °C; act. (temperature stability) ([3]; 30 min at 25° C.): 36.5 U/ml; act. (temperature stability) ([3]; 30 min at 30° C.): 30.2 U/ml; act. (temperature stability) ([3]; 30 min at 37° C.): 35.8 U/ml; act. (temperature stability) ([3]; 30 min at 40° C.): 32 U/ml; act. (temperature stability) ([3]; 30 min at 45° C.): 26.2 U/ml; act. (temperature stability) ([3]; 30 min at 50° C.): 2.4 U/ml; act. (temperature stability) ([3]; 30 min at 55° C.): 0 U/ml
ketovaleric acid | 0.27 |  |  | Relative act. [1, 5]: 8%
